Assay results taken from the supplement of paper PMC10307832.

Columns and labels:
Experiment in all cases: relative viability (nuclei count vs DMSO), 5 days (fraction); higher = more cells survive
AGI-6780 = compound: O=C(Nc1cccc(C(F)(F)F)c1)Nc1cc(S(=O)(=O)NC2CC2)ccc1-c1ccsc1 [AGI-6780]
Procedure, shortened: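 Lung cancer cell lines in 1536-well plates were kept overnight at 37 °C, then pinned with five library-drug doses (not always all listed) spaced by √10 on vehicle-anchored plates. After 5 days without medium change, cells were fixed, permeabilised and Hoechst-stained in one step, imaged at 4×, and nuclei were counted with MetaXpress. Viability is treated-well nuclei divided by vehicle-well nuclei, taken as the median over plates. Plates passed only with control CV below 25% and at least one doubling.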

AGI-6780 + Bortezomib = compound: O=C(Nc1cccc(C(F)(F)F)c1)Nc1cc(S(=O)(=O)NC2CC2)ccc1-c1ccsc1 [AGI-6780] + CC(C)C[C@H](NC(=O)[C@H](Cc1ccccc1)NC(=O)c1cnccn1)B(O)O [Bortezomib] (partner 0.002 µM)
Procedure, shortened: (§1)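 Dosing by pin tool came one day after lung cancer cell lines were seeded in 1536-well plates, using either one drug or a fixed anchor-drug dose plus five library-drug doses (not always all listed) in √10 steps. After 5 days, nuclei were counted on 4× images. Relative viability is treated-well nuclei count divided by vehicle-well nuclei count, and values are medians of duplicate plates.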

AGI-6780 + Navitoclax = compound: O=C(Nc1cccc(C(F)(F)F)c1)Nc1cc(S(=O)(=O)NC2CC2)ccc1-c1ccsc1 [AGI-6780] + CC1(C)CCC(c2ccc(Cl)cc2)=C(CN2CCN(c3ccc(C(=O)NS(=O)(=O)c4ccc(N[C@H](CCN5CCOCC5)CSc5ccccc5)c(S(=O)(=O)C(F)(F)F)c4)cc3)CC2)C1 [Navitoclax] (partner 0.5 µM)
Procedure, shortened: as §1

AGI-6780 + Foretinib = compound: O=C(Nc1cccc(C(F)(F)F)c1)Nc1cc(S(=O)(=O)NC2CC2)ccc1-c1ccsc1 [AGI-6780] + COc1cc2c(Oc3ccc(NC(=O)C4(C(=O)Nc5ccc(F)cc5)CC4)cc3F)ccnc2cc1OCCCN1CCOCC1 [Foretinib] (partner 0.25 µM)
Procedure, shortened: as §1

AGI-6780 + Lapatinib = compound: O=C(Nc1cccc(C(F)(F)F)c1)Nc1cc(S(=O)(=O)NC2CC2)ccc1-c1ccsc1 [AGI-6780] + CS(=O)(=O)CCNCc1ccc(-c2ccc3ncnc(Nc4ccc(OCc5cccc(F)c5)c(Cl)c4)c3c2)o1 [Lapatinib] (partner 2 µM)
Procedure, shortened: as §1

AGI-6780 + Pictilisib = compound: O=C(Nc1cccc(C(F)(F)F)c1)Nc1cc(S(=O)(=O)NC2CC2)ccc1-c1ccsc1 [AGI-6780] + CS(=O)(=O)N1CCN(Cc2cc3nc(-c4cccc5[nH]ncc45)nc(N4CCOCC4)c3s2)CC1 [Pictilisib] (partner 1 µM)
Procedure, shortened: as §1

AGI-6780 + Crizotinib = compound: O=C(Nc1cccc(C(F)(F)F)c1)Nc1cc(S(=O)(=O)NC2CC2)ccc1-c1ccsc1 [AGI-6780] + C[C@@H](Oc1cc(-c2cnn(C3CCNCC3)c2)cnc1N)c1c(Cl)ccc(F)c1Cl [Crizotinib] (partner 1 µM)
Procedure, shortened: as §1

AGI-6780 + Linsitinib = compound: O=C(Nc1cccc(C(F)(F)F)c1)Nc1cc(S(=O)(=O)NC2CC2)ccc1-c1ccsc1 [AGI-6780] + C[C@]1(O)C[C@@H](c2nc(-c3ccc4ccc(-c5ccccc5)nc4c3)c3c(N)nccn32)C1 [Linsitinib] (partner 1 µM)
Procedure, shortened: as §1

AGI-6780 + Alpelisib = compound: O=C(Nc1cccc(C(F)(F)F)c1)Nc1cc(S(=O)(=O)NC2CC2)ccc1-c1ccsc1 [AGI-6780] + Cc1nc(NC(=O)N2CCC[C@H]2C(N)=O)sc1-c1ccnc(C(C)(C)C(F)(F)F)c1 [Alpelisib] (partner 2 µM)
Procedure, shortened: as §1

AGI-6780 + AZD7762 = compound: O=C(Nc1cccc(C(F)(F)F)c1)Nc1cc(S(=O)(=O)NC2CC2)ccc1-c1ccsc1 [AGI-6780] + NC(=O)Nc1cc(-c2cccc(F)c2)sc1C(=O)N[C@H]1CCCNC1 [AZD7762] (partner 0.2 µM)
Procedure, shortened: as §1

AGI-6780 + Olaparib = compound: O=C(Nc1cccc(C(F)(F)F)c1)Nc1cc(S(=O)(=O)NC2CC2)ccc1-c1ccsc1 [AGI-6780] + O=C(c1cc(Cc2n[nH]c(=O)c3ccccc23)ccc1F)N1CCN(C(=O)C2CC2)CC1 [Olaparib] (partner 8 µM)
Procedure, shortened: as §1

NCI-H1703
relative viability (AGI-6780; 0.08 µM): 0.949
relative viability (AGI-6780; 0.253 µM): 0.84
relative viability (AGI-6780; 0.8 µM): 1.02
relative viability (AGI-6780; 2.53 µM): 0.823
relative viability (AGI-6780; 8 µM): 0.807
relative viability (AGI-6780 + Bortezomib; first compound 0.08 µM): 0.473
relative viability (AGI-6780 + Bortezomib; first compound 0.253 µM): 0.315
relative viability (AGI-6780 + Bortezomib; first compound 0.8 µM): 0.509
relative viability (AGI-6780 + Bortezomib; first compound 2.53 µM): 0.364
relative viability (AGI-6780 + Bortezomib; first compound 8 µM): 0.375
relative viability (AGI-6780 + Navitoclax; first compound 0.08 µM): 1.49
relative viability (AGI-6780 + Navitoclax; first compound 0.253 µM): 1.21
relative viability (AGI-6780 + Navitoclax; first compound 0.8 µM): 1.25
relative viability (AGI-6780 + Navitoclax; first compound 2.53 µM): 1.1
relative viability (AGI-6780 + Navitoclax; first compound 8 µM): 1.25
relative viability (AGI-6780 + Foretinib; first compound 0.253 µM): 0.327
relative viability (AGI-6780 + Foretinib; first compound 0.8 µM): 0.333
relative viability (AGI-6780 + Foretinib; first compound 2.53 µM): 0.36
relative viability (AGI-6780 + Foretinib; first compound 8 µM): 0.393
relative viability (AGI-6780 + Lapatinib; first compound 0.08 µM): 1.11
relative viability (AGI-6780 + Lapatinib; first compound 0.253 µM): 0.87
relative viability (AGI-6780 + Lapatinib; first compound 0.8 µM): 1.82
relative viability (AGI-6780 + Lapatinib; first compound 2.53 µM): 1.13
relative viability (AGI-6780 + Lapatinib; first compound 8 µM): 0.93
relative viability (AGI-6780 + Pictilisib; first compound 0.08 µM): 0.336
relative viability (AGI-6780 + Pictilisib; first compound 0.253 µM): 0.197
relative viability (AGI-6780 + Pictilisib; first compound 0.8 µM): 0.259
relative viability (AGI-6780 + Pictilisib; first compound 2.53 µM): 0.223
relative viability (AGI-6780 + Pictilisib; first compound 8 µM): 0.248
relative viability (AGI-6780 + Crizotinib; first compound 0.08 µM): 0.906
relative viability (AGI-6780 + Crizotinib; first compound 0.253 µM): 0.612
relative viability (AGI-6780 + Crizotinib; first compound 0.8 µM): 1.11
relative viability (AGI-6780 + Crizotinib; first compound 2.53 µM): 0.665
relative viability (AGI-6780 + Crizotinib; first compound 8 µM): 0.824
relative viability (AGI-6780 + Linsitinib; first compound 0.08 µM): 1.18
relative viability (AGI-6780 + Linsitinib; first compound 0.253 µM): 0.978
relative viability (AGI-6780 + Linsitinib; first compound 0.8 µM): 0.736
relative viability (AGI-6780 + Linsitinib; first compound 2.53 µM): 0.559
relative viability (AGI-6780 + Linsitinib; first compound 8 µM): 0.166
relative viability (AGI-6780 + Alpelisib; first compound 0.08 µM): 0.377
relative viability (AGI-6780 + Alpelisib; first compound 0.253 µM): 0.278
relative viability (AGI-6780 + Alpelisib; first compound 0.8 µM): 0.424
relative viability (AGI-6780 + Alpelisib; first compound 2.53 µM): 0.344
relative viability (AGI-6780 + Alpelisib; first compound 8 µM): 0.251
relative viability (AGI-6780 + AZD7762; first compound 0.08 µM): 0.14
relative viability (AGI-6780 + AZD7762; first compound 0.253 µM): 0.139
relative viability (AGI-6780 + AZD7762; first compound 0.8 µM): 0.0936
relative viability (AGI-6780 + AZD7762; first compound 2.53 µM): 0.112
relative viability (AGI-6780 + AZD7762; first compound 8 µM): 0.133
relative viability (AGI-6780 + Olaparib; first compound 0.08 µM): 0.728
relative viability (AGI-6780 + Olaparib; first compound 0.253 µM): 0.37
relative viability (AGI-6780 + Olaparib; first compound 0.8 µM): 0.457
relative viability (AGI-6780 + Olaparib; first compound 2.53 µM): 0.373
relative viability (AGI-6780 + Olaparib; first compound 8 µM): 0.25
